Measurements from ChEMBL document CHEMBL3822399, “Discovery of novel, high potent, ABC type PTP1B inhibitors with TCPTP selectivity and cellular activity” (Eur J Med Chem, 2016).
Active and inactive are the calls of the source. The rule behind the calls is not given here.

What was measured:
[1] = molecular target: T1, Tyrosine-protein phosphatase non-receptor type 1 (Homo sapiens, UniProt P18031); test: Inhibition of recombinant PTP1B (unknown origin) using pNPP as substrate incubated for 30 mins
T1 sequence (P18031 whole entry): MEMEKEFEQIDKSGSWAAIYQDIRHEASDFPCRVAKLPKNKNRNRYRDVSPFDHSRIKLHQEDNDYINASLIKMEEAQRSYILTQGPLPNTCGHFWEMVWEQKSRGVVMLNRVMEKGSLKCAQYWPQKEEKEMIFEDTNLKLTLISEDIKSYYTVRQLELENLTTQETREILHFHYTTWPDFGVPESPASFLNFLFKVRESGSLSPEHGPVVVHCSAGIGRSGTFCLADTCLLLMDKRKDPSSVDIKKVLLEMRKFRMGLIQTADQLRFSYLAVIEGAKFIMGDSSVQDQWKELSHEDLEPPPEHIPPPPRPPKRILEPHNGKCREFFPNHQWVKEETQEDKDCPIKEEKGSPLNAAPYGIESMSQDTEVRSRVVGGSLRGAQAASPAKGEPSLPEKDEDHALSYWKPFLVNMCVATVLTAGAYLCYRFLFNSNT

[2] = molecular target: T2, Tyrosine-protein phosphatase non-receptor type 11 (Homo sapiens, UniProt Q06124); test: Inhibition of human SHP2 using pNPP as substrate incubated for 30 mins
T2 sequence (Q06124 whole entry): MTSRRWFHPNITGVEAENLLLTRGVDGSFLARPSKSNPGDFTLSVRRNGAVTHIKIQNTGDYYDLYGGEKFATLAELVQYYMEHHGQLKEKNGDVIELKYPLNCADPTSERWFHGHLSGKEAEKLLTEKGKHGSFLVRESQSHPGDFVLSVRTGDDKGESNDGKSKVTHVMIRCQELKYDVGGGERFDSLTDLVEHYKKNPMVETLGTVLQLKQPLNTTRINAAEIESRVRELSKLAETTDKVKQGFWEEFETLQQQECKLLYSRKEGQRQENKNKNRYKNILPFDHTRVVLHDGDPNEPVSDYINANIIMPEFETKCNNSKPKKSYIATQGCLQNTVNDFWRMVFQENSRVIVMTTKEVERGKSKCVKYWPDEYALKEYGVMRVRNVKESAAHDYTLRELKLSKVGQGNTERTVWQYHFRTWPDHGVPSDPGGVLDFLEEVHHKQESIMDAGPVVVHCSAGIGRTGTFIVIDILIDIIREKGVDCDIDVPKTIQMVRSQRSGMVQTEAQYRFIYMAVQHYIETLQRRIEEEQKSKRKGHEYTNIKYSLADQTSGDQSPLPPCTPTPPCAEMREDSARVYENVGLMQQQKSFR

[3] = molecular target: T3, Receptor-type tyrosine-protein phosphatase F (Homo sapiens, UniProt P10586); test: Inhibition of human LAR using pNPP as substrate incubated for 30 mins
T3 sequence (P10586 whole entry): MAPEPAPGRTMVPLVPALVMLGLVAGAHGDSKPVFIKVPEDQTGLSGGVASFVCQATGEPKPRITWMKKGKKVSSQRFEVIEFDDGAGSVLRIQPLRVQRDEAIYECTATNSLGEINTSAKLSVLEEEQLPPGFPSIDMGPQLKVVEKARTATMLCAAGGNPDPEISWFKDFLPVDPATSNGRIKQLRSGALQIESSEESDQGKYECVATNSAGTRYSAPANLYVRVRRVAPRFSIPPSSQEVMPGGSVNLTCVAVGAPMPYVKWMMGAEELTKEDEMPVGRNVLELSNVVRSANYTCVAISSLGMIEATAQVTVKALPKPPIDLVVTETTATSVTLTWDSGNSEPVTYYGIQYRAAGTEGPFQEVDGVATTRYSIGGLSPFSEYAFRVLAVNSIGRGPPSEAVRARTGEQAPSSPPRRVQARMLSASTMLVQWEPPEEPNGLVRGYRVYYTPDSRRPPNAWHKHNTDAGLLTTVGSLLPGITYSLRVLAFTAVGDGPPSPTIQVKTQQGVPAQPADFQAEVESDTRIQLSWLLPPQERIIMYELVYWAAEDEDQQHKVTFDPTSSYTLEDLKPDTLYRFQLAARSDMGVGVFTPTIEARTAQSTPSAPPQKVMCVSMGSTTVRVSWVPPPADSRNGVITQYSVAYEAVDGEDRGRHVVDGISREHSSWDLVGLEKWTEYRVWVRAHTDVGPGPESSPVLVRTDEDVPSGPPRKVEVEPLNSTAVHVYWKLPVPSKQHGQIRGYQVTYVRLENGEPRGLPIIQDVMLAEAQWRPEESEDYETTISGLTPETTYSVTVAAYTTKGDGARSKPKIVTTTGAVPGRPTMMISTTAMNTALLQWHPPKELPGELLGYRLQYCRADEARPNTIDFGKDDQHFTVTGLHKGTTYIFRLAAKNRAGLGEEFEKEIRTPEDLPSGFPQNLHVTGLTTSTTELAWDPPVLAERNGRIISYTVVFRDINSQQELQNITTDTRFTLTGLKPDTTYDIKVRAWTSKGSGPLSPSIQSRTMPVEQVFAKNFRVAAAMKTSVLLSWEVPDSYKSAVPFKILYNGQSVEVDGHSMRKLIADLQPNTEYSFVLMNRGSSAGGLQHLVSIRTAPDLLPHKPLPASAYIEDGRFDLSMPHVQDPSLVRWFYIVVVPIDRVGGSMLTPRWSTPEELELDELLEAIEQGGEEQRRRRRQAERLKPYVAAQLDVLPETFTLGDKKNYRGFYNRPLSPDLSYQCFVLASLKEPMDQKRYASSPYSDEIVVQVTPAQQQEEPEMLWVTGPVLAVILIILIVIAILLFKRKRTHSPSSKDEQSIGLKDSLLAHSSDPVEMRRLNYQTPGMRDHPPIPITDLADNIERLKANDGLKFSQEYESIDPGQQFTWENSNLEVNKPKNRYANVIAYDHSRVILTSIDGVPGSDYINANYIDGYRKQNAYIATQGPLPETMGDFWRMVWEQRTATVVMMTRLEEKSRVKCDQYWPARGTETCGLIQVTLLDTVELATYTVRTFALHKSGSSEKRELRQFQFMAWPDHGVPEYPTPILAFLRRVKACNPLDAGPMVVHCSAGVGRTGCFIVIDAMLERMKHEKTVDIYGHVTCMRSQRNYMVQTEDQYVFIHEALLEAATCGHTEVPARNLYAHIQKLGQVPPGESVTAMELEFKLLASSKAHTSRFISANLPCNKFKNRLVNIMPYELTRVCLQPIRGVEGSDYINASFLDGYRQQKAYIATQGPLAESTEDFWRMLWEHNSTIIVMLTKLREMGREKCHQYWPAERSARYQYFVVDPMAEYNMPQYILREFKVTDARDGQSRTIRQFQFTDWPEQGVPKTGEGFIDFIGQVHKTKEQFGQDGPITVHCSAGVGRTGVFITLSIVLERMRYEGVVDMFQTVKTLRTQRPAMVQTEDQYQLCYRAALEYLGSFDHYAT

[4] = molecular target: T4, Tyrosine-protein phosphatase non-receptor type 1 (Rattus norvegicus) (UniProt P20417); test: Inhibition of PTP1B in rat L6 cells assessed as increase in insulin-stimulated 2-NBDG uptake at 10 uM preincubated for 4 hrs followed by insulin stimulation for 10 mins and subsequent addition of 2-NBDG measured after 30 mins by fluorescence assay relative to control; type: cell-based; design: scale not given: the % may be the effect or the level left
T4 sequence (whole entry): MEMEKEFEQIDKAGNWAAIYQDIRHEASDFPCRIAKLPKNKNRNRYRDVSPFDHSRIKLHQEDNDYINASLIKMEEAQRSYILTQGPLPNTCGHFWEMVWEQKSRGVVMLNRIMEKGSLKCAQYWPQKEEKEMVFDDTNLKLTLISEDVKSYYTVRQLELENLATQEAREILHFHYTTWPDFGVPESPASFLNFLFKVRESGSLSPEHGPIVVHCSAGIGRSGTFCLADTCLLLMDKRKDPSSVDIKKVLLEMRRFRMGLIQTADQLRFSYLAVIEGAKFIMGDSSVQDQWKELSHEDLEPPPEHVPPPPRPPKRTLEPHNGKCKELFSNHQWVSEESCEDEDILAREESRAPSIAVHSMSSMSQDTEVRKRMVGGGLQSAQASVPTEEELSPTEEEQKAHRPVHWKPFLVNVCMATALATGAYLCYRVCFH

[5] = molecular target: T5, Tyrosine-protein phosphatase non-receptor type 6 (Homo sapiens, UniProt P29350); test: Inhibition of human SHP1 using pNPP as substrate at 25 uM incubated for 30 mins relative to control
T5 sequence (P29350 whole entry): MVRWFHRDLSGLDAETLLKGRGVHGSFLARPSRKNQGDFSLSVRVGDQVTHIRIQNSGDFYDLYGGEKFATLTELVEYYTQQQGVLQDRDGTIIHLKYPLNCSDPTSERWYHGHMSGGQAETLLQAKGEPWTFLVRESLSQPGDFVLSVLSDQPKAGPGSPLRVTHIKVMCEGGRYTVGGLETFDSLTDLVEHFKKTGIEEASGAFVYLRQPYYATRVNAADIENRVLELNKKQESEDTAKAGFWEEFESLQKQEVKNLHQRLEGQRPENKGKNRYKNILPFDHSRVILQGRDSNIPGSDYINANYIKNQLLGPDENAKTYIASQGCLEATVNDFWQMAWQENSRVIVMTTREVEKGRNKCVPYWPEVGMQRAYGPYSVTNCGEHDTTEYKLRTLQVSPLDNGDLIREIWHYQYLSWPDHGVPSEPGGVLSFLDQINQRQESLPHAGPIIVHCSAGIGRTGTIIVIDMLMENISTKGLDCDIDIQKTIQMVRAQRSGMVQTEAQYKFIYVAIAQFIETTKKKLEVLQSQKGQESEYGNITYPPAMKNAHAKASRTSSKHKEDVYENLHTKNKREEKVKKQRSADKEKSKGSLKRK

[6] = molecular target: T6, Tyrosine-protein phosphatase non-receptor type 2 (Homo sapiens) (UniProt P17706); test: Inhibition of human TCPTP using pNPP as substrate at 25 uM incubated for 30 mins relative to control
T6 sequence (whole entry): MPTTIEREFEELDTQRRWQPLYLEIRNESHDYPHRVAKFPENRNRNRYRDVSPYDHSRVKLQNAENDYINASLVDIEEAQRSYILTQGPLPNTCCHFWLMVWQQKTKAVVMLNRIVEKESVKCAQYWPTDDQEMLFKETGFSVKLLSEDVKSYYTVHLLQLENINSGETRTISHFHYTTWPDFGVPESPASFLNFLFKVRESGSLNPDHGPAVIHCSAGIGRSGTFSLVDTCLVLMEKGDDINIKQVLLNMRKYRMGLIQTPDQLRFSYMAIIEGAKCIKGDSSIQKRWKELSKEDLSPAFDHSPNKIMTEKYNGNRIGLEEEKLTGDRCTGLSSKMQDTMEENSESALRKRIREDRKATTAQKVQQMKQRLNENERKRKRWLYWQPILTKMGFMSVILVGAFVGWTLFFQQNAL

[7] = molecular target: T3, Receptor-type tyrosine-protein phosphatase F; test: Inhibition of human LAR using pNPP as substrate at 25 uM incubated for 30 mins relative to control
[8] = molecular target: T4, Tyrosine-protein phosphatase non-receptor type 1 (Rattus norvegicus); test: Inhibition of PTP1B in rat L6 cells assessed as increase in insulin-stimulated 2-NBDG uptake at 20 uM preincubated for 4 hrs followed by insulin stimulation for 10 mins and subsequent addition of 2-NBDG measured after 30 mins by fluorescence assay relative to control; type: cell-based; design: scale not given: the % may be the effect or the level left
[9] = molecular target: T7, Tyrosine-protein phosphatase non-receptor type 11 (Homo sapiens) (UniProt Q06124); test: Inhibition of human SHP2 using pNPP as substrate at 25 uM incubated for 30 mins relative to control
T7 sequence (whole entry): T2 sequence (Q06124 whole entry)

[10] = molecular target: T4, Tyrosine-protein phosphatase non-receptor type 1 (Rattus norvegicus); test: Inhibition of PTP1B in rat L6 cells assessed as increase in insulin-stimulated 2-NBDG uptake at 5 uM preincubated for 4 hrs followed by insulin stimulation for 10 mins and subsequent addition of 2-NBDG measured after 30 mins by fluorescence assay relative to control; type: cell-based; design: scale not given: the % may be the effect or the level left
[11] = molecular target: T8, Tyrosine-protein phosphatase non-receptor type 1 (Homo sapiens) (UniProt P18031); test: Inhibition of recombinant PTP1B (unknown origin) using pNPP as substrate at 25 uM incubated for 30 mins relative to control
T8 sequence (whole entry): T1 sequence (P18031 whole entry)

Homo sapiens = species: Homo sapiens; test: Selectivity ratio of IC50 for human SHP1 to IC50 for recombinant PTP1B (unknown origin)
[12] = molecular target: T5, Tyrosine-protein phosphatase non-receptor type 6; test: Inhibition of human SHP1 using pNPP as substrate incubated for 30 mins
[13] = molecular target: T9, Tyrosine-protein phosphatase non-receptor type 2 (Homo sapiens, UniProt P17706); test: Inhibition of human TCPTP using pNPP as substrate incubated for 30 mins
T9 sequence (P17706 whole entry): T6 sequence (whole entry)

CHO = test: Inhibition of PTP1B in CHO cells expressing human IR assessed as increase in insulin-mediated IR-beta phosphorylation at tyrosine residue 20 at 15 to 30 uM preincubated for 4 hrs followed by insulin stimulation measured after 10 mins by western blot analysis; type: cell-based; details: Cricetulus griseus

Q: How did the IC50 [1] turn out when `COC(=O)CN(c1ccc(CN(c2ccc(OCc3ccccc3)cc2)S(=O)(=O)Cc2ccccc2)cc1)S(C)(=O)=O` was run?
A: 16000 nM

Q: Which IC50 [1] does the source give for `CCCCOc1ccc(N(Cc2ccc(N(CC(=O)OC)S(C)(=O)=O)cc2)S(=O)(=O)Cc2ccccc2)cc1C(=O)OC` here?
A: 4830 nM

Q: What does the source list for `CC1(C)CC[C@]2(C(=O)O)CC[C@]3(C)C(=CC[C@@H]4[C@@]5(C)CC[C@H](O)C(C)(C)[C@@H]5CC[C@]43C)[C@@H]2C1` [OLEANOLIC_ACID]?
A: IC50 [2]: 11600 nM; IC50 [3]: 22300 nM

Q: Which Activity [4] does the source give for `CCCOc1ccc(N(Cc2ccc(N(CC(=O)OC)S(C)(=O)=O)cc2)S(=O)(=O)Cc2ccccc2)cc1C(=O)OC` here?
A: 26.1%

Q: What about the inhibition [5] of the same compound?
A: < 50%

Q: What about the IC50 [1] of the same compound?
A: 936 nM

Q: And the inhibition [6]?
A: < 50%

Q: What about the inhibition [7] of the same compound?
A: < 50%

Q: And the Activity [8]?
A: 27.7%

Q: And the inhibition [9]?
A: < 50%

Q: And the Activity [10]?
A: 6.9%

Q: `COC(=O)CN(c1ccc(CN(c2ccc(OCc3cccc(C)c3)c(C(=O)OC)c2)S(=O)(=O)Cc2ccccc2)cc1)S(C)(=O)=O` was tested. Which inhibition [11] did it give?
A: < 50%

Q: What does the source list for `COC(=O)CN(c1ccc(CN(c2ccc(OCc3ccc(C)cc3)c(C(=O)OC)c2)S(=O)(=O)Cc2ccccc2)cc1)S(C)(=O)=O`?
A: Activity [4]: 19%; Ratio IC50 (Homo sapiens): 49; IC50 [12]: 2450 nM; IC50 [1]: 50 nM; IC50 [2]: 2160 nM; IC50 [13]: 760 nM; inhibition (CHO): Active; Activity [8]: 38.1%; IC50 [3]: 12600 nM; Activity [10]: 16%

Q: What does the source list for `COC(=O)CN(c1ccc(CN(c2ccc(OCc3ccccc3)c(C(=O)OC)c2)S(=O)(=O)Cc2ccccc2)cc1)S(C)(=O)=O`?
A: Ratio IC50 (Homo sapiens): 18; IC50 [12]: 6460 nM; IC50 [1]: 355 nM; inhibition [7]: < 50%; IC50 [13]: 427 nM; inhibition [9]: < 50%

Q: How did the inhibition [11] turn out when `CCOc1ccc(N(Cc2ccc(N(CC(=O)OC)S(C)(=O)=O)cc2)S(=O)(=O)Cc2ccccc2)cc1C(=O)OC` was run?
A: < 50%
